How the values were obtained:
Format in all cases: in vivo
[1] = tested on: Echinochloa crus-galli var. crus-galli; test: Test Example 3: herbicidal effect by foliage application, Wagner pot (symbol H); conditions: application herbicide amount 320 g/ha
Outline: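 Alluvial soil was flooded to a depth of 0.1–0.5 cm, seeded with the weeds and rice, and kept in a greenhouse at 25–30 °C. After 14 days of growth, the foliage received a small-sprayer application of emulsion diluted to the intended rate; injury was rated at 3 weeks.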

Veronica persica = test: Test Example 5: herbicidal effect by foliage application, plastic box (symbol R); conditions: 320 g/ha, 3 weeks after application
Outline: (§1)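 After sowing into sterilized diluvial soil and growing two weeks under glass at 25° C. to 30° C., seedlings receive a uniform foliar spray of diluted emulsion. Damage is judged visually three weeks on.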

Abutilon theophrasti [2] = test: Test Example 4: herbicidal effect by soil treatment (symbol M); conditions: for M: Abutilon theophrasti, herbicidal effect grade: 320 g/ha
Description: (§2) Herbicidal Effect Test by Soil Treatment
(§3) Sterilized diluvial soil was placed in a plastic box having a length of 21 cm, a width of 13 cm, and a depth of 7 cm. Each of the seeds of Digitaria ciliaris, Setaria viridis, Echinochloa crus-galli var. crus-galli, Avena fatua, Alopecurus myosuroides, Lolium multiflorum Lam., Apera spica-venti, Abutilon theophrasti, Amaranthus retroflexus, Chenopodium album, Stellaria media, Galium spurium, Veronica persica, corn, soybean, rice, wheat, beet, and rapeseed was sowed in a spot-like manner and was covered with the soil of a thickness of about 1.5 cm. Subsequently, the emulsion agent of the compound present invention prepared in accordance with Formulation Example 2 was diluted with water so as to be a predetermined herbicide amount and the diluted emulsion agent was uniformly applied to the surface of the soil with a small-size spray. The plastic box was placed in a greenhouse of 25° C. to 30° C. to grow plant. 3 weeks later from the herbicide application, the effect to each plant was investigated in accordance with the criteria of Test Example 1.

Abutilon theophrasti [3] = test: Test Example 5: herbicidal effect by foliage application, plastic box (symbol M); conditions: 320 g/ha, 3 weeks after application
Outline: as §1

Monochoria vaginalis = test: Test Example 2: herbicidal activity, application during weed generation in submerged conditions (symbol C); conditions: Table 23; application herbicide amount 320 g/ha; grade 0-5 by criteria of Test Example 1
Outline: (§4)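 Weeds emerging under flooded conditions were treated with compound formulated as an emulsion and diluted with water to the intended herbicide amount, poured onto the surface of 4 cm standing water. Seeds had been co-sown in alluvial soil; plants grew at 25° C. to 30° C. and were assessed after 3 weeks.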

Lolium multiflorum Lam. = test: Test Example 4: herbicidal effect by soil treatment (symbol K); conditions: for K: Lolium multiflorum Lam., herbicidal effect grade: 320 g/ha
Description: as §2, §3

Digitaria ciliaris = test: Test Example 4: herbicidal effect by soil treatment (symbol F); conditions: for F: Digitaria ciliaris, herbicidal effect grade: 320 g/ha
Description: as §2, §3

Stellaria media = test: Test Example 5: herbicidal effect by foliage application, plastic box (symbol P); conditions: 320 g/ha, 3 weeks after application
Outline: as §1

rice plant = test: Test Example 5: effect on crop by foliage application, plastic box (symbol b); conditions: 320 g/ha, 3 weeks after application
Outline: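 Crop seed is sown alongside grass and broadleaf weed species in spots in sterilized diluvial soil, then covered to a depth of about 1.5 cm. Plants grow in a greenhouse kept at 25° C. to 30° C.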

soybean = test: Test Example 4: effect on crop by soil treatment (symbol d); conditions: for d: soybean, effect grade on crop: 320 g/ha
Description: as §2
(§5) Sterilized diluvial soil was placed in a plastic box having a length of 21 cm, a width of 13 cm, and a depth of 7 cm. Each of the seeds of Digitaria ciliaris, Setaria viridis, Echinochloa crus-galli var. crus-galli, Avena fatua, Alopecurus myosuroides, Lolium multiflorum Lam., Apera spica-venti, Abutilon theophrasti, Amaranthus retroflexus, Chenopodium album, Stellaria media, Galium spurium, Veronica persica, corn, soybean, rice, wheat, beet, and rapeseed was sowed in a spot-like manner and was covered with the soil of a thickness of about 1.5 cm. […] The plastic box was placed in a greenhouse of 25° C. to 30° C. to grow plant.

Setaria viridis = test: Test Example 4: herbicidal effect by soil treatment (symbol G); conditions: for G: Setaria viridis, herbicidal effect grade: 320 g/ha
Description: as §2, §3

Avena fatua = test: Test Example 5: herbicidal effect by foliage application, plastic box (symbol I); conditions: 320 g/ha, 3 weeks after application
Outline: as §1

Apera spica-venti [4] = test: Test Example 4: herbicidal effect by soil treatment (symbol L); conditions: for L: Apera spica-venti, herbicidal effect grade: 320 g/ha
Description: as §2, §3

[5] = tested on: Echinochloa oryzacola Vasing.; test: Test Example 2: herbicidal activity, application during weed generation in submerged conditions (symbol A); conditions: Table 23; application herbicide amount 320 g/ha; grade 0-5 by criteria of Test Example 1
Outline: as §4

Apera spica-venti [6] = test: Test Example 5: herbicidal effect by foliage application, plastic box (symbol L); conditions: 320 g/ha, 3 weeks after application
Outline: as §1

Chenopodium album = test: Test Example 5: herbicidal effect by foliage application, plastic box (symbol O); conditions: 320 g/ha, 3 weeks after application
Outline: as §1

beet = test: Test Example 4: effect on crop by soil treatment (symbol f); conditions: for f: beet, effect grade on crop: 320 g/ha
Description: as §2, §5

[7] = application herbicide amount 320 g/ha

Row | SMILES | herbicidal effect on H (Echinochloa crus-galli var. crus-galli), grade 0-5 [1] | R: Veronica persica, herbicidal effect grade (Veronica persica) | M: Abutilon theophrasti, herbicidal effect grade (Abutilon theophrasti [3]) | Herbicidal effect grade, C: Monochoria vaginalis (Monochoria vaginalis) | P: Stellaria media, herbicidal effect grade (Stellaria media) | b: directly sowed rice plant, effect on crop grade (rice plant) | I: Avena fatua, herbicidal effect grade (Avena fatua) | Herbicidal effect grade, A: Echinochloa oryzacola Vasing. [5] | L: Apera spica-venti, herbicidal effect grade (Apera spica-venti [6]) | O: Chenopodium album, herbicidal effect grade (Chenopodium album) | R: Veronica persica, herbicidal effect (criteria 0-5) (Veronica persica) | M: Abutilon theophrasti, herbicidal effect grade (Abutilon theophrasti [2]) | M: Abutilon theophrasti, herbicidal effect (criteria 0-5) (Abutilon theophrasti [3]) | K: Lolium multiflorum Lam., herbicidal effect grade (Lolium multiflorum Lam.) | f: beet, effect grade on crop (beet) | F: Digitaria ciliaris, herbicidal effect grade (Digitaria ciliaris) | P: Stellaria media, herbicidal effect (criteria 0-5) (Stellaria media) | b: directly sowed rice plant, effect on crop (criteria 0-5) (rice plant) | d: soybean, effect grade on crop (soybean) | G: Setaria viridis, herbicidal effect grade (Setaria viridis) | other results
1 | C=CCOC1=C(c2c(C)cc(C)cc2C)C(=O)C(CC(C)=NOC)C1 (stereo not shown) [1-007] | 0 (Herbicidal ratio of 5% or lower (almost no effect)) | 0 (Herbicidal ratio of 5% or lower (almost no effect)) | 0 (Herbicidal ratio of 5% or lower (almost no effect)) | 0 (Herbicidal ratio of 5% or lower (almost no effect)) | 0 (Herbicidal ratio of 5% or lower (almost no effect)) | 0 (Herbicidal ratio of 5% or lower (almost no effect)) | 3 (Herbicidal ratio of 40% or higher and lower than 70%) | 0 (Herbicidal ratio of 5% or lower (almost no effect)) | 1 (Herbicidal ratio of 5% or higher and lower than 20%) | 0 (Herbicidal ratio of 5% or lower (almost no effect)) | – | – | – | – | – | – | – | – | – | – | M (Abutilon theophrasti) herbicidal effect grade (Abutilon theophrasti [2]; [7]): 0 (Herbicidal ratio of 5% or lower (almost no effect)); K (Lolium multiflorum Lam.) herbicidal effect grade (Lolium multiflorum Lam.; [7]): 2 (Herbicidal ratio of 20% or higher and lower than 40%); F (Digitaria ciliaris) herbicidal effect grade (Digitaria ciliaris; [7]): 0 (Herbicidal ratio of 5% or lower (almost no effect)); d (soybean) effect on crop grade (soybean; [7]): 0 (Herbicidal ratio of 5% or lower (almost no effect)); G (Setaria viridis) herbicidal effect grade (Setaria viridis; [7]): 0 (Herbicidal ratio of 5% or lower (almost no effect)); L (Apera spica-venti) herbicidal effect grade (Apera spica-venti [4]; [7]): 3 (Herbicidal ratio of 40% or higher and lower than 70%)
2 | CC(CC1CC(O)=C(c2c(C)cc(C)cc2C)C1=O)=NOCC#N (stereo not shown) [1-102] | 5 (Herbicidal ratio of 90% or more (almost completely withered)) | – | – | 2 (Herbicidal ratio of 20% or higher and lower than 40%) | – | – | – | 5 (Herbicidal ratio of 90% or more (almost completely withered)) | – | – | 2 (Herbicidal ratio of 20% or higher and lower than 40%) | 0 (Herbicidal ratio of 5% or lower (almost no effect)) | 0 (Herbicidal ratio of 5% or lower (almost no effect)) | 5 (Herbicidal ratio of 90% or more (almost completely withered)) | 0 (Herbicidal ratio of 5% or lower (almost no effect)) | 4 (Herbicidal ratio of 70% or higher and lower than 90%) | 0 (Herbicidal ratio of 5% or lower (almost no effect)) | 5 (Herbicidal ratio of 90% or more (almost completely withered)) | 0 (Herbicidal ratio of 5% or lower (almost no effect)) | 5 (Herbicidal ratio of 90% or more (almost completely withered)) | I: Avena fatua, herbicidal effect (criteria 0-5) (Avena fatua): 5 (Herbicidal ratio of 90% or more (almost completely withered)); L: Apera spica-venti, herbicidal effect grade (Apera spica-venti [4]): 5 (Herbicidal ratio of 90% or more (almost completely withered)); L: Apera spica-venti, herbicidal effect (criteria 0-5) (Apera spica-venti [6]): 5 (Herbicidal ratio of 90% or more (almost completely withered)); O: Chenopodium album, herbicidal effect (criteria 0-5) (Chenopodium album): 3 (Herbicidal ratio of 40% or higher and lower than 70%)
3 | CCCCCCCCS(=O)(=O)OC1=C(c2c(C)cc(C)cc2C)C(=O)C(CC(C)=NOC)C1 (stereo not shown) [1-107] | 5 (Herbicidal ratio of 90% or more (almost completely withered)) | – | – | 0 (Herbicidal ratio of 5% or lower (almost no effect)) | – | – | – | 5 (Herbicidal ratio of 90% or more (almost completely withered)) | – | – | 0 (Herbicidal ratio of 5% or lower (almost no effect)) | 0 (Herbicidal ratio of 5% or lower (almost no effect)) | 1 (Herbicidal ratio of 5% or higher and lower than 20%) | 5 (Herbicidal ratio of 90% or more (almost completely withered)) | 0 (Herbicidal ratio of 5% or lower (almost no effect)) | 5 (Herbicidal ratio of 90% or more (almost completely withered)) | 0 (Herbicidal ratio of 5% or lower (almost no effect)) | 5 (Herbicidal ratio of 90% or more (almost completely withered)) | 0 (Herbicidal ratio of 5% or lower (almost no effect)) | 3 (Herbicidal ratio of 40% or higher and lower than 70%) | I: Avena fatua, herbicidal effect (criteria 0-5) (Avena fatua): 5 (Herbicidal ratio of 90% or more (almost completely withered)); L: Apera spica-venti, herbicidal effect grade (Apera spica-venti [4]): 5 (Herbicidal ratio of 90% or more (almost completely withered)); L: Apera spica-venti, herbicidal effect (criteria 0-5) (Apera spica-venti [6]): 5 (Herbicidal ratio of 90% or more (almost completely withered)); O: Chenopodium album, herbicidal effect (criteria 0-5) (Chenopodium album): 0 (Herbicidal ratio of 5% or lower (almost no effect))
4 | CC#Cc1cc(C)c(C2=C(OC(=O)COc3ccccc3)CC(CC(C)=NOCC(F)(F)F)C2=O)c(C)c1 (stereo not shown) [9-013] | – | 4 (Herbicidal ratio of 70% or higher and lower than 90%) | 4 (Herbicidal ratio of 70% or higher and lower than 90%) | 3 (Herbicidal ratio of 40% or higher and lower than 70%) | 2 (Herbicidal ratio of 20% or higher and lower than 40%) | 5 (Herbicidal ratio of 90% or more (almost completely withered)) | 5 (Herbicidal ratio of 90% or more (almost completely withered)) | 5 (Herbicidal ratio of 90% or more (almost completely withered)) | 5 (Herbicidal ratio of 90% or more (almost completely withered)) | 3 (Herbicidal ratio of 40% or higher and lower than 70%) | – | – | – | – | – | – | – | – | – | – | H (Echinochloa crus-galli var. crus-galli) herbicidal effect grade ([1]; Table 24): 5 (Herbicidal ratio of 90% or more (almost completely withered)); Herbicidal effect grade, M: Abutilon theophrasti (Abutilon theophrasti [2]; [7]): 3 (Herbicidal ratio of 40% or higher and lower than 70%); Herbicidal effect grade, K: Lolium multiflorum Lam. (Lolium multiflorum Lam.; [7]): 5 (Herbicidal ratio of 90% or more (almost completely withered)); Effect on crop grade, f: beet (beet; [7]): 5 (Herbicidal ratio of 90% or more (almost completely withered)); Herbicidal effect grade, F: Digitaria ciliaris (Digitaria ciliaris; [7]): 5 (Herbicidal ratio of 90% or more (almost completely withered)); Effect on crop grade, d: soybean (soybean; [7]): 0 (Herbicidal ratio of 5% or lower (almost no effect)); Herbicidal effect grade, G: Setaria viridis (Setaria viridis; [7]): 5 (Herbicidal ratio of 90% or more (almost completely withered)); Herbicidal effect grade, L: Apera spica-venti (Apera spica-venti [4]; [7]): 5 (Herbicidal ratio of 90% or more (almost completely withered))

— US11000033B2, “Ketone or oxime compound, and herbicide” (NISSAN CHEMICAL CORPORATION, priority 2014, dated 2021)
